{"source": "paper PMC7176092", "about": "“Development of the first in vivo GPR17 ligand through an iterative drug discovery pipeline: A novel disease-modifying strategy for multiple sclerosis” (PLoS ONE, 2020)", "key": {"[1]": {"assay": "In vivo mouse DMPK study, single 1 mg/kg subcutaneous dose", "description": "In vivo DMPK studies were performed as an external service by Aptuit (Verona, Italy) according to standard procedures.\nTwo compounds were tested in a single dose pharmacokinetic (PK) study in mouse, in which a 1 mg/kg single dose solution (15% Ethanol, 85% PEG400) was administered by subcutaneous injection to naïve CD1 male mice from accredited supplier (n = 3), weighed prior to dosing. Blood samples were collected for 8 time-points (0.25, 0.50, 1, 2, 4, 6, 8, 24 hours).\nPlasma samples were prepared and diluted according standard in-house procedures and stored at approximately -20°C, pending analysis. Briefly, blood samples were collected into tubes containing anticoagulant (K3EDTA), stored on ice and centrifuged to prepare plasma within 2 hours of collection. Plasma samples were diluted in Hepes Buffer and deproteinised using CH3CN containing rolipram as internal reference compound for positive ion mode, according standard procedure (20 ng/ml). After vortexing and centrifugation (3000 rpm per 10 min), sample supernatants were transferred in 96 well plate and diluted with water for analysis.\nBlood concentrations of the tested compounds and their metabolites were detected through Liquid Chromatography-tandem Mass Spectrometry (QTRAP® 4000 LC-MS/MS System, Sciex). The results for each test compound in plasma were subjected to non-compartmental PK analysis using WinNonlin Phoenix v.6.3 for generation of appropriate PK parameters, reported along with graphical representation of the mean plasma concentration profiles over time.\nAt 24 hours, animals were sacrificed, and brains were collected and processed for measuring compound concentrations through mass spectrometry."}, "[2]": {"biological_target": "T1, ADR1B (Homo sapiens, UniProt P35368)", "T1 construct": "Eurofins Cerep (external service)", "T1 sequence (P35368 1-520)": "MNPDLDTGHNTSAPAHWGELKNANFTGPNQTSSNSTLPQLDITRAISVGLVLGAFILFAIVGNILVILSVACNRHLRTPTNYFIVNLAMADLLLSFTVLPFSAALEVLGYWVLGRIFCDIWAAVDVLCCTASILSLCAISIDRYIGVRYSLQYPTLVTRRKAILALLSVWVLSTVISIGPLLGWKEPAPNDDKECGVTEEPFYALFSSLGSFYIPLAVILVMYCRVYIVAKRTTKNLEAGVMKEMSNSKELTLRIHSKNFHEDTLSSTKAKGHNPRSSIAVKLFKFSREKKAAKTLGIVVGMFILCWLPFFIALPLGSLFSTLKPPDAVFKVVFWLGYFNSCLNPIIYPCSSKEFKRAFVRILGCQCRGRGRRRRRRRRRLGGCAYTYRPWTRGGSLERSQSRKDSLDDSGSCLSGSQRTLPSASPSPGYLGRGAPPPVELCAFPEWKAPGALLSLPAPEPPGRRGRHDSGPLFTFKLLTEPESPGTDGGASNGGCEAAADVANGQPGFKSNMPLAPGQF", "assay": "Binding assay ADR1B", "details": "100 nM"}, "[3]": {"biological_target": "T2, M1 (Homo sapiens, UniProt P11229)", "T2 construct": "Eurofins Cerep (external service)", "T2 sequence (P11229 1-460)": "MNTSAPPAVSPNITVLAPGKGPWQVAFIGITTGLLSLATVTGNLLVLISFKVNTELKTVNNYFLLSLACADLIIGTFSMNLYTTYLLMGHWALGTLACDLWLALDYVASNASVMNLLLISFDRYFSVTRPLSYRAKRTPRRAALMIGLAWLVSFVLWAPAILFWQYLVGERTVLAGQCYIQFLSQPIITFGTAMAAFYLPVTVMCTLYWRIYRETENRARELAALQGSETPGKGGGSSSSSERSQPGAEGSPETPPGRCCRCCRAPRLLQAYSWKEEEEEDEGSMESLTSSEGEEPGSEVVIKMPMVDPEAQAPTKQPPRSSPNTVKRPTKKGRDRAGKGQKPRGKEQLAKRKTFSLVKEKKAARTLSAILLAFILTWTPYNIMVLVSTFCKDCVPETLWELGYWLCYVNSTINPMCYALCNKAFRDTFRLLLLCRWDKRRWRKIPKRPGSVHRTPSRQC", "assay": "Binding assay M1", "details": "100 nM"}, "[4]": {"biological_target": "T3, human GPR17 (Homo sapiens, UniProt Q13304)", "T3 construct": "HA; expressed in transfected cells", "T3 sequence (Q13304 29-367)": "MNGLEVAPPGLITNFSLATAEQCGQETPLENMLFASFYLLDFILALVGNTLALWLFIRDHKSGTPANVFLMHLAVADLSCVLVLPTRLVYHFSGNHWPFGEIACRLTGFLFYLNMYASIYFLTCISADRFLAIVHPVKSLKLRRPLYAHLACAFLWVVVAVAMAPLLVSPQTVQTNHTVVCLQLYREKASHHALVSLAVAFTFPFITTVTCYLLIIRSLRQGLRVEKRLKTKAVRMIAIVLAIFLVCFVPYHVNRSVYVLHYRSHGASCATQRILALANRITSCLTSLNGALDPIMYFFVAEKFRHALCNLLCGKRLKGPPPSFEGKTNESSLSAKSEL", "assay": "[35S]GTPγS binding assay", "format": "biochemical", "description": "[^35S]GTPγS binding assays were carried out as previously described. Briefly, control and astrocytoma 1321N1 cells stably transfected with human pcDNA3.1 (control cells) and human HA-tag GPR17 were homogenized in 5 mM Tris/HCl and 2 mM EDTA (pH 7.4) and centrifuged at 48,000g for 15 min at 4°C. The resulting pellets were washed in 50 mM Tris/HCl and 10 mM MgCl2 (pH 7.4). After protein dosage, aliquots of cell membranes were incubated with increasing concentrations of each investigated ligand (1 pM–10 μM) and GTPγS binding to activated G-proteins was quantified as previously described. Compounds were purchased from two external providers, i.e., Ambinter (Ambinter c/o Greenpharma, Orléans, France http://www.ambinter.com/) and Asinex (http://www.asinex.com/).\nFor analysis and graphic presentation of [^35S]GTPγS binding data, a nonlinear multipurpose curve fitting computer program (Graph-Pad Prism) was used. All data are presented as the mean ± SEM of three different experiments.\nThe selected 15 molecules were evaluated in our in-house [^35S]GTPγS functional assay in membranes from cells transfected with human GPR17. […] Moreover, this assay has been already successfully used in the past to measure the ability of both endogenous and novel synthetic compounds to activate GPR17 [25, 31]. All tested molecules were able to potently activate GPR17 with nanomolar/sub-nanomolar affinities. Concentration-response curves obtained for each selected compound are reported in S4 Fig."}, "[5]": {"biological_target": "CXCR4 (Homo sapiens, UniProt P61073)", "sequence (P61073 whole entry)": "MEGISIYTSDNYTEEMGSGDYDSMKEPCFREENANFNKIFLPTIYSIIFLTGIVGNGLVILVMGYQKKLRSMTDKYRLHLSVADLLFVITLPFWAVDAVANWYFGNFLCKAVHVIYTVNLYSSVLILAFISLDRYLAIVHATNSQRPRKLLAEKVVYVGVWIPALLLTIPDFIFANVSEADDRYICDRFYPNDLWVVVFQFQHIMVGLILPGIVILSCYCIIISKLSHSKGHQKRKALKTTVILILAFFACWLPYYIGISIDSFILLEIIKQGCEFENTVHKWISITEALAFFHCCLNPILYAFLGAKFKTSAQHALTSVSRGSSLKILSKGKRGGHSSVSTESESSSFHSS", "assay": "Cellular functional assay CXCR4"}, "[6]": {"details": "mouse, sc, plasma, 1 mg/kg s.c. single dose, CD1 male mice"}, "[7]": {"details": "mean of 2, read-out: % Of control specific binding, Mean"}, "[8]": {"details": "read-out: % Inhibition of control specific binding"}, "[9]": {"details": "single replicates 1 and 2, 0.1 µM"}}, "note": "Where “and” joins values, the source holds several entries; their conditions need not be identical. Equal entries are not always repeated. Where two headings read alike, the source gives them in different places. Marks after values point to notes of the source that are not given here."}
{"compound": "Cc1ccc(-c2nnc(SCC(=O)Nc3nccs3)[nH]2)cc1", "note": "[Compound 9]", "values": [{"measurement": "Plasma concentration, individual mice", "setting": "[1]; 0.50 h, 1 mg/kg s.c., 1 mg/kg", "result": "71.7 ng/mL and 98.3 ng/mL and 30.8 ng/mL"}, {"measurement": "Plasma concentration, individual mice", "setting": "[1]; 1.00 h, 1 mg/kg s.c., 1 mg/kg", "result": "14.3 ng/mL and 38.5 ng/mL and 76.3 ng/mL"}, {"measurement": "Plasma concentration, individual mice", "setting": "[1]; 2.00 h, 1 mg/kg s.c., 1 mg/kg", "result": "5.6 ng/mL and 10.3 ng/mL and 29.8 ng/mL"}, {"measurement": "Plasma concentration, individual mice", "setting": "[1]; 4.00 h, 1 mg/kg s.c., 1 mg/kg", "result": 2.6, "unit": "ng/mL"}, {"measurement": "concentration at 0.5 h", "setting": "[1]; male, CD1, mouse, plasma, sc, 1 mg/kg, 0.50 h, 1 mg/kg s.c., n=3 mice, read-out: Plasma concentration, Mean", "result": 66.9, "unit": "ng/mL"}, {"measurement": "concentration at 1 h", "setting": "[1]; male, CD1, mouse, plasma, sc, 1 mg/kg, 1.00 h, 1 mg/kg s.c., n=3 mice, read-out: Plasma concentration, Mean", "result": 43, "unit": "ng/mL"}, {"measurement": "concentration at 2 h", "setting": "[1]; male, CD1, mouse, plasma, sc, 1 mg/kg, 2.00 h, 1 mg/kg s.c., n=3 mice", "result": 15.2, "unit": "ng/mL"}, {"measurement": "concentration at 4 h", "setting": "[1]; male, CD1, mouse, plasma, sc, 1 mg/kg, 4.00 h, 1 mg/kg s.c., read-out: Plasma concentration, Mean", "result": 2.8, "unit": "ng/mL"}, {"measurement": "concentration at 4 h", "setting": "[1]; male, CD1, mouse, plasma, sc, 1 mg/kg, 4.00 h, 1 mg/kg s.c., read-out: Plasma concentration, individual mice", "result": 2.9, "unit": "ng/mL"}, {"measurement": "concentration at 4 h", "setting": "[1]; male, CD1, mouse, plasma, sc, 1 mg/kg, plasma, 1 mg/kg s.c. single dose, CD1 male mice, read-out: Clast", "result": 4.81, "unit": "ng/mL"}, {"measurement": "AUC(0-t)", "setting": "[1]; [6]", "result": 85.8, "unit": "ng·h/mL"}, {"measurement": "Cmax", "setting": "[1]; [6]", "result": 72.3, "unit": "ng/mL"}, {"measurement": "Tmax", "setting": "[1]; [6]", "result": 30, "unit": "min"}, {"measurement": "half-life", "setting": "[1]; [6]", "result": 65.4, "unit": "min"}, {"measurement": "Metabolites found in vivo", "setting": "[1]; plasma after s.c. administration in mice", "result": "no detectable metabolites"}, {"measurement": "Tlast", "setting": "[1]; plasma, 1 mg/kg s.c. single dose, CD1 male mice", "result": 4.00, "unit": "h"}, {"measurement": "remaining activity at 0.1 µM", "setting": "[2]; [7]", "result": 89.8, "unit": "%"}, {"measurement": "inhibition at 0.1 µM", "setting": "[2]; [8]", "result": 10, "unit": "%"}, {"measurement": "% Of control specific binding", "setting": "[2]; [9]", "result": "100.1% and 79.4%"}, {"measurement": "remaining activity at 0.1 µM", "setting": "[3]; [7]", "result": 108, "unit": "%"}, {"measurement": "inhibition at 0.1 µM", "setting": "[3]; [8]", "result": -8, "unit": "%"}, {"measurement": "% Of control specific binding", "setting": "[3]; [9]", "result": 110.2, "unit": "%"}, {"measurement": "remaining activity at 0.1 µM", "setting": "[3]; single replicates 1 and 2, read-out: % Of control specific binding", "result": 105, "unit": "%"}, {"measurement": "EC50", "setting": "[4]; membranes of 1321N1 cells transfected with human GPR17, mean ± SEM of 3 experiments", "result": "0.64 ± 0.12", "unit": "nM"}, {"measurement": "% Emax (ratio vs Emax of the standard)", "setting": "[4]; standard LTD4 50 nM set to 100% († compounds)", "result": "88.5 ^** %"}, {"measurement": "Emax (% vs basal)", "setting": "[4]; vs basal, mean ± SEM", "result": "127.8 ± 3.0", "unit": "%"}, {"measurement": "Agonist Response (% of Control)", "setting": "[5]; antagonist effect, 100 nM, single replicates 1st and 2nd, 0.1 µM", "result": 70.8, "unit": "%"}, {"measurement": "inhibition at 0.1 µM", "setting": "[5]; read-out: % Inhibition of control agonist response", "result": 4.4, "unit": "%"}, {"measurement": "activity at 0.1 µM", "setting": "[5]; read-out: Agonist Response (% of Control), Mean, antagonist effect, 100 nM, mean of 2", "result": 78.2, "unit": "%"}, {"measurement": "activity at 0.1 µM", "setting": "[5]; read-out: Agonist Response (% of Control), antagonist effect, 100 nM, single replicates 1st and 2nd", "result": 85.6, "unit": "%"}]}
